BindingDB's records for doi:10.1016/j.bmc.2009.07.051 (La Rochelle University, 2009)

Key:
[1] = biological target: Dual specificity tyrosine-phosphorylation-regulated kinase 1A (Rattus norvegicus, UniProt Q63470); test: Inhibition of GST-fused rat recombinant DYRK1A expressed in Escherichia coli assessed as [gamma-33P]ATP incorporation after 10 mins by scintillation counting
[2] = biological target: Cyclin-dependent kinase 5 activator 1 (Homo sapiens, UniProt Q15078+Q00535); test: Inhibition of GST-fused CDK5/p25 expressed in Escherichia coli assessed as [gamma-33P]ATP incorporation after 10 mins by scintillation counting
Chain of Cyclin-dependent kinase 5 activator 1 (Q15078 whole entry, the tested form may be a part): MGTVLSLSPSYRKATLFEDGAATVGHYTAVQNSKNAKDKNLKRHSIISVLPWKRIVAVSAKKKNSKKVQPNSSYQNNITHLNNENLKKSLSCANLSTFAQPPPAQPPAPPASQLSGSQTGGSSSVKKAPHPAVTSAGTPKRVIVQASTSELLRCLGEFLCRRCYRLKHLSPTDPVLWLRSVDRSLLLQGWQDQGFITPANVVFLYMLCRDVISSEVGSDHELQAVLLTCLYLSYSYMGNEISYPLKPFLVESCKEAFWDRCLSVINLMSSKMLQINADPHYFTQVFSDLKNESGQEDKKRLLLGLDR
Chain of Cyclin-dependent kinase 5 activator 1 (Q00535 whole entry, the tested form may be a part): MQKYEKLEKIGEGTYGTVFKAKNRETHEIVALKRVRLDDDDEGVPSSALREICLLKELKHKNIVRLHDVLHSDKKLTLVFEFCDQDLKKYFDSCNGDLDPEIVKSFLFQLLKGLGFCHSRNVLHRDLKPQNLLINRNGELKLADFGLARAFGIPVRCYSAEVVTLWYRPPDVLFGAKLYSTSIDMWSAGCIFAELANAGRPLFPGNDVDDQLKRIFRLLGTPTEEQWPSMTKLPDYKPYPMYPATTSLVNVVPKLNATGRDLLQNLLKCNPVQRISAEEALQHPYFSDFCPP

| Compound | IC50 [1] | IC50 [2] |
| --- | --- | --- |
| O=Nc1c(C2C(=O)Nc3c(Br)cc([N+](=O)[O-])cc32)[nH]c2ccccc12 (stereo unspecified) [(Z)-7'-Bromo-5'-nitro-1H,1'H-[2,3']biindolylidene-3,2'-dione 3-oxime] | > 10 µM | > 10 µM |
| O=Nc1c(C2C(=O)Nc3ccc([N+](=O)[O-])cc32)[nH]c2ccc(Br)cc12 (stereo unspecified) [(Z)-5-Bromo-5'-nitro-1H,1'H-[2,3']biindolylidene-3,2'-dione 3-oxime] | > 10 µM |  |
| O=C1C(C2C(=O)Nc3ccc([N+](=O)[O-])cc32)=Nc2ccc(Br)cc21 (stereo unspecified) [(Z)-5-Bromo-5'-nitro-1H,1'H-[2,3']biindolylidene-3,2'-dione] | > 10 µM | > 10 µM |
| O=C1C(C2C(=O)Nc3cc([N+](=O)[O-])ccc32)=Nc2ccc(Br)cc21 (stereo unspecified) |  | > 10 µM |
| O=Nc1c(C2C(=O)Nc3c(Br)cc([N+](=O)[O-])cc32)[nH]c2ccc(Br)cc12 (stereo unspecified) [(Z)-5,7'-Dibromo-5'-nitro-1H,1'H-[2,3']biindolylidene-3,2'-dione 3-oxime] | > 10 µM | > 10 µM |
| O=C1C(C2C(=O)Nc3c(Br)cc([N+](=O)[O-])cc32)=Nc2ccc(Br)cc21 (stereo unspecified) [(2'Z)-5'-7-Dibromo-5-nitroindirubin] | > 10 µM | > 10 µM |
| O=C1N=c2ccc([N+](=O)[O-])cc2=C1c1[nH]c2ccccc2c1O [(Z)-5'-Nitro-1H,1'H-[2,3']biindolylidene-3,2'-dione] | > 10 µM |  |
| Nc1ccc2c(c1)C(c1[nH]c3ccc(Br)cc3c1N=O)C(=O)N2 (stereo unspecified) [(Z)-5'-Amino-5-bromo-1H,1'H-[2,3']biindolylidene-3,2'-dione 3-oxime] | > 10 µM |  |
| O=C1C(C2C(=O)Nc3cc([N+](=O)[O-])ccc32)=Nc2ccccc21 (stereo unspecified) [(2''Z)-6-Nitroindirubin] |  | > 10 µM |
| O=C1N=c2c(Br)cc([N+](=O)[O-])cc2=C1c1[nH]c2ccccc2c1O [(2'Z)-7-Bromo-5-nitroindirubin] | > 10 µM | > 10 µM |
| CC(=O)Nc1ccc2c(c1)C(c1[nH]c3ccc(Br)cc3c1N=O)C(=O)N2 (stereo unspecified) [N-{(Z)-5-Bromo-3-[(E)-hydroxyimino]-2'-oxo-1,3,1',2'-tetrahydro-[2,3']biindolyliden-5'-yl}-acetamide] | > 10 µM |  |
